Reference: ChEMBL document CHEMBL3885861, “Open TG-GATES”

Organism: Rattus norvegicus
Test: Open TG-GATES - Regimen: Single
Assay type: toxicity, organism-based, Sprague-Dawley
Set-up: regimen Single, gender Male, age 6 weeks
Conditions: in vivo, po, route gavage; for APTT / Bas / Eos / Fbg / Hb / Ht / Lym / MCH / MCHC / MCV / Mono / Neu / PT / Plat / RBC / Ret / WBC: tissue Blood; for KIDNEY_L / KIDNEY_R / KIDNEY_TOTAL: tissue Kidney; for ALP / AST / CRE / Cl / DBIL / GLC / IP / K / LDH / Na / PL / RALB / TBIL / TC / TG / TP / gamma-GTP / ALT: tissue Plasma
[1] = 0 mg/kg, 3 h, dose level Control
[2] = 0 mg/kg, 6 h, dose level Control
[3] = 0 mg/kg, 9 h, dose level Control
[4] = 0 mg/kg, 24 h, dose level Control

**Q.** With `COc1cc2c(c(OC)c1OC)-c1ccc(OC)c(=O)cc1[C@@H](NC(C)=O)CC2` [COLCHICINE] as the molecule, how does the TERMINAL_BW [1] read?
**A.** 221.7 g

**Q.** And the APTT [1]?
**A.** 16.2 s

**Q.** What about the Bas [1] of the same molecule?
**A.** 0%

**Q.** What about the Eos [1] of the same molecule?
**A.** 0.8%

**Q.** And the Fbg [1]?
**A.** 209.4 mg/dL

**Q.** What about the Hb [1] of the same molecule?
**A.** 13.1 g/dL

**Q.** And the Ht [1]?
**A.** 39.6%

**Q.** And the Lym [1]?
**A.** 81.8%

**Q.** And the MCH [1]?
**A.** 21.6 pg

**Q.** What about the MCHC [1] of the same molecule?
**A.** 33.1%

**Q.** What about the MCV [1] of the same molecule?
**A.** 65.2 fL

**Q.** What about the Mono [1] of the same molecule?
**A.** 7%

**Q.** And the Neu [1]?
**A.** 10.4%

**Q.** And the PT [1]?
**A.** 11.8 s

**Q.** And the Plat [1]?
**A.** 118.4 x10_4/uL

**Q.** And the RBC [1]?
**A.** 608.4 x10_4/ul

**Q.** What about the Ret [1] of the same molecule?
**A.** 10.3%

**Q.** What about the WBC [1] of the same molecule?
**A.** 89.6 x10_2/uL

**Q.** And the KIDNEY_L [1]?
**A.** 1 g

**Q.** And the KIDNEY_R [1]?
**A.** 1.1 g

**Q.** What about the KIDNEY_TOTAL [1] of the same molecule?
**A.** 2 g

**Q.** What about the ALP [1] of the same molecule?
**A.** 835.6 IU/L

**Q.** What about the AST [1] of the same molecule?
**A.** 65.6 IU/L

**Q.** And the CRE [1]?
**A.** 0.4 mg/dL

**Q.** And the Cl [1]?
**A.** 103.4 meq/L

**Q.** And the DBIL [1]?
**A.** 0.038 mg/dL

**Q.** What about the GLC [1] of the same molecule?
**A.** 208.6 mg/dL

**Q.** And the IP [1]?
**A.** 9.3 mg/dL

**Q.** What about the K [1] of the same molecule?
**A.** 4.5 meq/L

**Q.** What about the LDH [1] of the same molecule?
**A.** 88.4 IU/L

**Q.** And the Na [1]?
**A.** 140.2 meq/L

**Q.** And the PL [1]?
**A.** 139.2 mg/dL

**Q.** What about the RALB [1] of the same molecule?
**A.** 3.6 g/dL

**Q.** What about the TBIL [1] of the same molecule?
**A.** 0.3 mg/dL

**Q.** What about the TC [1] of the same molecule?
**A.** 78.4 mg/dL

**Q.** And the TG [1]?
**A.** 61 mg/dL

**Q.** What about the TP [1] of the same molecule?
**A.** 5.4 g/dL

**Q.** And the gamma-GTP [1]?
**A.** 1.4 IU/L

**Q.** What about the TERMINAL_BW [2] of the same molecule?
**A.** 218.4 g

**Q.** And the APTT [2]?
**A.** 16.3 s

**Q.** And the Bas [2]?
**A.** 0%

**Q.** What about the Eos [2] of the same molecule?
**A.** 0.8%

**Q.** What about the Fbg [2] of the same molecule?
**A.** 222.4 mg/dL

**Q.** What about the Hb [2] of the same molecule?
**A.** 13.1 g/dL

**Q.** What about the Ht [2] of the same molecule?
**A.** 39.9%

**Q.** And the Lym [2]?
**A.** 82.2%

**Q.** What about the MCH [2] of the same molecule?
**A.** 21.6 pg

**Q.** What about the MCHC [2] of the same molecule?
**A.** 33%

**Q.** What about the MCV [2] of the same molecule?
**A.** 65.4 fL

**Q.** What about the Mono [2] of the same molecule?
**A.** 6.6%

**Q.** What about the Neu [2] of the same molecule?
**A.** 10.4%

**Q.** What about the PT [2] of the same molecule?
**A.** 12 s

**Q.** What about the Plat [2] of the same molecule?
**A.** 110.7 x10_4/uL

**Q.** And the RBC [2]?
**A.** 609.8 x10_4/ul

**Q.** And the Ret [2]?
**A.** 9.6%

**Q.** What about the WBC [2] of the same molecule?
**A.** 104.3 x10_2/uL

**Q.** What about the KIDNEY_L [2] of the same molecule?
**A.** 1 g

**Q.** What about the KIDNEY_R [2] of the same molecule?
**A.** 1 g

**Q.** What about the KIDNEY_TOTAL [2] of the same molecule?
**A.** 2 g

**Q.** What about the ALP [2] of the same molecule?
**A.** 745.2 IU/L

**Q.** What about the ALT [2] of the same molecule?
**A.** 27.6 IU/L

**Q.** What about the AST [2] of the same molecule?
**A.** 59 IU/L

**Q.** What about the CRE [2] of the same molecule?
**A.** 0.5 mg/dL

**Q.** What about the Cl [2] of the same molecule?
**A.** 104 meq/L

**Q.** And the DBIL [2]?
**A.** 0.036 mg/dL

**Q.** What about the GLC [2] of the same molecule?
**A.** 188.2 mg/dL

**Q.** What about the IP [2] of the same molecule?
**A.** 10.1 mg/dL

**Q.** What about the K [2] of the same molecule?
**A.** 4.6 meq/L

**Q.** And the LDH [2]?
**A.** 77.2 IU/L

**Q.** What about the Na [2] of the same molecule?
**A.** 139 meq/L

**Q.** What about the PL [2] of the same molecule?
**A.** 135.2 mg/dL

**Q.** And the RALB [2]?
**A.** 3.7 g/dL

**Q.** What about the TBIL [2] of the same molecule?
**A.** 0.4 mg/dL

**Q.** And the TC [2]?
**A.** 73.2 mg/dL

**Q.** And the TG [2]?
**A.** 48.4 mg/dL

**Q.** And the TP [2]?
**A.** 5.5 g/dL

**Q.** What about the gamma-GTP [2] of the same molecule?
**A.** 1.6 IU/L

**Q.** And the TERMINAL_BW [3]?
**A.** 218.9 g

**Q.** And the APTT [3]?
**A.** 16.3 s

**Q.** And the Bas [3]?
**A.** 0%

**Q.** What about the Eos [3] of the same molecule?
**A.** 0.8%

**Q.** What about the Fbg [3] of the same molecule?
**A.** 216.2 mg/dL

**Q.** What about the Hb [3] of the same molecule?
**A.** 12.8 g/dL

**Q.** What about the Ht [3] of the same molecule?
**A.** 38.9%

**Q.** What about the Lym [3] of the same molecule?
**A.** 85.4%

**Q.** And the MCH [3]?
**A.** 21.6 pg

**Q.** And the MCHC [3]?
**A.** 33%

**Q.** What about the MCV [3] of the same molecule?
**A.** 65.8 fL

**Q.** And the Mono [3]?
**A.** 5.4%

**Q.** What about the Neu [3] of the same molecule?
**A.** 8.4%

**Q.** What about the PT [3] of the same molecule?
**A.** 12.1 s

**Q.** What about the Plat [3] of the same molecule?
**A.** 111 x10_4/uL

**Q.** What about the RBC [3] of the same molecule?
**A.** 591.6 x10_4/ul

**Q.** And the Ret [3]?
**A.** 9.4%

**Q.** What about the WBC [3] of the same molecule?
**A.** 88.7 x10_2/uL

**Q.** And the KIDNEY_L [3]?
**A.** 1 g

**Q.** And the KIDNEY_R [3]?
**A.** 1.1 g

**Q.** What about the KIDNEY_TOTAL [3] of the same molecule?
**A.** 2.1 g

**Q.** What about the ALP [3] of the same molecule?
**A.** 948.4 IU/L

**Q.** And the ALT [3]?
**A.** 28.8 IU/L

**Q.** What about the AST [3] of the same molecule?
**A.** 64.4 IU/L

**Q.** And the CRE [3]?
**A.** 0.5 mg/dL

**Q.** What about the Cl [3] of the same molecule?
**A.** 105.2 meq/L

**Q.** What about the DBIL [3] of the same molecule?
**A.** 0.044 mg/dL

**Q.** What about the GLC [3] of the same molecule?
**A.** 199.8 mg/dL

**Q.** And the IP [3]?
**A.** 9.9 mg/dL

**Q.** What about the K [3] of the same molecule?
**A.** 4.9 meq/L

**Q.** What about the LDH [3] of the same molecule?
**A.** 71.2 IU/L

**Q.** And the Na [3]?
**A.** 137.6 meq/L

**Q.** What about the PL [3] of the same molecule?
**A.** 134.4 mg/dL

**Q.** What about the RALB [3] of the same molecule?
**A.** 3.8 g/dL

**Q.** And the TBIL [3]?
**A.** 0.4 mg/dL

**Q.** And the TC [3]?
**A.** 77.6 mg/dL

**Q.** And the TG [3]?
**A.** 40 mg/dL

**Q.** What about the TP [3] of the same molecule?
**A.** 5.4 g/dL

**Q.** What about the gamma-GTP [3] of the same molecule?
**A.** 1.6 IU/L

**Q.** And the TERMINAL_BW [4]?
**A.** 232.9 g

**Q.** And the APTT [4]?
**A.** 16.4 s

**Q.** And the Bas [4]?
**A.** 0%

**Q.** And the Eos [4]?
**A.** 1.2%

**Q.** What about the Fbg [4] of the same molecule?
**A.** 215.8 mg/dL

**Q.** What about the Hb [4] of the same molecule?
**A.** 12.8 g/dL

**Q.** What about the Ht [4] of the same molecule?
**A.** 38.6%

**Q.** And the Lym [4]?
**A.** 77.2%

**Q.** And the MCH [4]?
**A.** 21.7 pg

**Q.** What about the MCHC [4] of the same molecule?
**A.** 33.1%

**Q.** What about the MCV [4] of the same molecule?
**A.** 65.5 fL

**Q.** And the Mono [4]?
**A.** 7.2%

**Q.** What about the Neu [4] of the same molecule?
**A.** 14.6%

**Q.** What about the PT [4] of the same molecule?
**A.** 11.2 s

**Q.** And the Plat [4]?
**A.** 118.5 x10_4/uL

**Q.** And the RBC [4]?
**A.** 588.4 x10_4/ul

**Q.** What about the Ret [4] of the same molecule?
**A.** 10.2%

**Q.** And the WBC [4]?
**A.** 102.4 x10_2/uL

**Q.** What about the KIDNEY_L [4] of the same molecule?
**A.** 1.1 g

**Q.** What about the KIDNEY_R [4] of the same molecule?
**A.** 1.1 g

**Q.** And the KIDNEY_TOTAL [4]?
**A.** 2.2 g

**Q.** What about the ALP [4] of the same molecule?
**A.** 858 IU/L

**Q.** What about the AST [4] of the same molecule?
**A.** 61.2 IU/L

**Q.** What about the CRE [4] of the same molecule?
**A.** 0.5 mg/dL

**Q.** What about the Cl [4] of the same molecule?
**A.** 102.8 meq/L

**Q.** And the DBIL [4]?
**A.** 0.022 mg/dL

**Q.** What about the GLC [4] of the same molecule?
**A.** 203 mg/dL

**Q.** What about the IP [4] of the same molecule?
**A.** 7.7 mg/dL

**Q.** What about the K [4] of the same molecule?
**A.** 4.9 meq/L

**Q.** What about the LDH [4] of the same molecule?
**A.** 86.2 IU/L

**Q.** And the Na [4]?
**A.** 137.6 meq/L

**Q.** What about the PL [4] of the same molecule?
**A.** 156.8 mg/dL

**Q.** And the RALB [4]?
**A.** 3.8 g/dL

**Q.** And the TBIL [4]?
**A.** 0.4 mg/dL

**Q.** And the TC [4]?
**A.** 84.8 mg/dL

**Q.** What about the TG [4] of the same molecule?
**A.** 122.8 mg/dL

**Q.** What about the TP [4] of the same molecule?
**A.** 5.7 g/dL

**Q.** What about the gamma-GTP [4] of the same molecule?
**A.** 1 IU/L

**Q.** And the TERMINAL_BW (2 mg/kg, 3 h, dose level Low)?
**A.** 218.7 g
